From US4207326A, “Antimicrobial quaternary pyrazole derivatives” (Cilag-Chemie A.G., priority 1979, dated 1980)
Where two headings read alike, the source gives them in different places.

Assays:
S. pyogenes = assay: Antibacterial activity: Minimum Inhibitory Concentration; type: cell-based, Streptococcus pyogenes NCTC 8198; conditions: Streptococcus pyogenes, 24 hours
Experimental: (§1) The antimicrobial activity was determined by inoculation of the test microorganism into suitable growth media containing solutions of the compounds at concentrations of 100, 50, 10, 5, 1.0, 0.5 and 0.1 μg/ml. The reference antibiotics used were Gentamicin for the antibacterial tests and Amphotericin B for the antimycotic and antifungal tests. After incubation the antimicrobial activity was recorded as the Minimal Inhibitory Concentration (M.I.C.), i.e., the lowest concentration preventing macroscopically visible growth, for each test compound against each organism.
(§2) An initial solution of each formula (I) compound to be tested in sterile distilled water was prepared at a concentration of 1000 μg/ml. With appropriate dilutions using sterile distilled water, additional solutions were prepared at concentrations of 500, 100, 50, 10, 5 and 1 μg/ml.
They were cultured and maintained on Tryptone Soy Agar (Oxoid CM 131), with the addition of 10% horse blood for the S. pyogenes.
To prepare the organisms as inocula for the test, slopes of this medium were streaked with the organisms and incubated at 37° C. for 24 hours. 4.5 Ml volumes of Brian-Heart Infusion Broth (Oxoid CM 225) were then inoculated with a platinum loop from the agar slope cultures and incubated for 24 hours at 37° C. The final inocula were then prepared by adding 0.1 ml aliquots of the Brain-Heart Infusion Broth cultures to 100 ml volumes of sterile physiological saline.
(a) For the test on each of the bacterial strains and each of the test and reference compounds, a series of 8 tubes containing 4.5 ml volumes of Brain-Heart Infusion Broth (Oxoid CM 225) were prepared. To 7 of these were added 0.5 ml volumes of the final solutions of the test compouns, giving final concentrations in the broths of 100, 50, 10, 5, 1.0, 0.5 and 0.1 μg/ml. To the eighth tube in each series was added 0.5 ml of the solvent used and diluted as for the preparation of the 1000 μg/ml solution of the compound. This tube was used as the growth control. The tubes were inoculated with 0.02 ml aliquots of the inocula prepared in accordance with "(a) Bacteria" above, and incubated at 37° C. for 24 hours. The tubes were then examined for evidence of bacterial growth as shown by turbidity of the medium and the lowest concentration of the test compound which prevented bacterial growth was recorded as the Minimal Inhibitory Concentration. This test procedure was carried out on two separate days.

A. fumigatus = assay: Antifungal activity: Minimum Inhibitory Concentration; type: cell-based, Aspergillus fimigatus (A. fumigatus) NCPF 2140; conditions: Aspergillus fumigatus, A. fumigatus, 27° C., one week, read-out: Minimum Inhibitory Concentration
Experimental: as §1, §2
(§3) The A. corymbifera, A. fumigatus, S. schenkii, T. rubrum, T. mentagrophytes, M. canis and P. verrucosa strains were all maintained on Sabouraud-Dextrose Agar (Oxoid CM 41) by incubating for 14 days at 27° C. To prepare the inocula 30 ml volumes of Sabouraud-Liquid medium (Oxoid CM 147) were inoculated from the agar cultures and incubated at 27° C. until heavy uniform growth resulted. The mycelial growth was then broken up by shaking with glass beads.
(§4) 1 Ml aliquots were removed from each of the cultures for the purpose of making viable counts and the cultures were then held at 4° C. The viable counts were made by preparing serial ten-fold dilutions of the cultures in sterile physiological saline and spreading on plates of Sabouraud-Dextrose Agar (Oxoid CM 41) which were then incubated at 27° C. for 14 days. When the viable counts had confirmed that each of the inocula contained approximately 10^6 colony forming units (C.F.U.) per ml the cultures were withdrawn from the refrigerator and used as the inocula for the tests.
(§5) (c) For the tests on each of the remaining seven strains and each of the test and reference compounds, a series of 8 tubes containing 4.5 ml volumes of Sabouraud-Liquid Medium (Oxoid CM 147) were prepared. To 7 of these were added 0.5 ml volumes of the final solutions of the test compounds, giving final concentrations in the broths of 100, 50, 10, 5, 1.0, 0.5 and 0.1 μg/ml. To the eighth tube in each series was added 0.5 ml of the solvent used and diluted as for the preparation of the 500 μg/ml solution of the compound. This tube was used as a growth control. The tubes were then inoculated with 0.1 ml aliquots of the inocula prepared as in "(b) Fungi" above. The tubes were then incubated at 27° C. with continuous shaking for a period of one week. The tubes were then examined for evidence of growth as shown by the presence of mycelial growth in the medium and the lowest concentration of the test compound which prevented fungal growth was recorded as the Minimal Inhibitory Concentration. This test procedure was carried out on two separate days.

S. schenkii = assay: as above; type: cell-based, Sporotrichon schenkii NCPF 3182; conditions: S. schenkii, 27° C., one week, read-out: Minimum Inhibitory Concentration
Experimental: as §1, §2, §3, §4, §5

T. mentagrophytes = assay: as above; type: cell-based, Trichophyton mentagrophytes NCPF 410; conditions: Trichophyton mentagrophytes, T. mentagrophytes, 27° C., one week, read-out: Minimum Inhibitory Concentration
Experimental: as §1, §2
T. mentagrophytes NCPF 410
as §3, §4, §5

[1] = system: Algae (diatoms, green and blue algae); assay: Algicidal activity in 350 liter concrete pools under outdoor conditions; conditions: for killing at 1 µg/mL: 1 mg/l water; for killing at 2 µg/mL: 2 mg/l water; for killing at 4 µg/mL: 4 mg/l water
Text: A comparison of the algicidic activity of the preferred compound, 1-hexadecyl-2,3,5-trimethyl-pyrazolium methosulfate, with said standard is shown in Table 4.
Results given above are mean values from 2 replicates of
Test conditions: Severe with high infection pressure after artificial
algae inoculation in 350 liter concrete pools under outdoor conditions.
Stains included: Green algae: Chlorella, Zygnema, Hormidium + Scenedesmus
Blue algae: Phormidium species
Diatoms: Nitzschea pallea
Water temperature: Day: 21° C., night: 18°-20° C.

[2] = mean over weeks 1-6, read-out: % algicidal activity, --x (mean)
[3] = 168 h, 1 week after treatment, mean of 2 replicates, read-out: % algicidal activity
[4] = 336 h, 2 weeks after treatment, mean of 2 replicates, read-out: % algicidal activity
[5] = 504 h, 3 weeks after treatment, mean of 2 replicates, read-out: % algicidal activity
[6] = 672 h, 4 weeks after treatment, mean of 2 replicates, read-out: % algicidal activity
[7] = 840 h, 5 weeks after treatment, mean of 2 replicates, read-out: % algicidal activity
[8] = 1008 h, 6 weeks after treatment, mean of 2 replicates, read-out: % algicidal activity

CCCCCCCCCCCCCCCCn1c(C)cc(C)[n+]1C [Example 2, 1-hexadecyl-2,3,5-trimethyl-pyrazolium methosulfate]
MIC (S. pyogenes; Day 1, 37° C.): 0.5 µg/mL | MIC (S. pyogenes; Day 2, 37° C.): 0.5 µg/mL | MIC (A. fumigatus; Day 1): 10 µg/mL | MIC (A. fumigatus; Day 2): 5 µg/mL | MIC (S. schenkii; Day 1): 10 µg/mL | MIC (S. schenkii; Day 2): 10 µg/mL | MIC (T. mentagrophytes; Day 1): 1 µg/mL | MIC (T. mentagrophytes; Day 2): 5 µg/mL | killing at 1 µg/mL [1, 2]: 96% | killing at 2 µg/mL [1, 2]: 99% | killing at 4 µg/mL [1, 2]: 100% | killing at 1 µg/mL [1, 3]: 100% | killing at 2 µg/mL [1, 3]: 100% | killing at 4 µg/mL [1, 3]: 100% | killing at 1 µg/mL [1, 4]: 100% | killing at 2 µg/mL [1, 4]: 100% | killing at 4 µg/mL [1, 4]: 100% | killing at 2 µg/mL [1, 5]: 100% | killing at 4 µg/mL [1, 5]: 100% | killing at 1 µg/mL [1, 6]: 96% | killing at 2 µg/mL [1, 6]: 100% | killing at 4 µg/mL [1, 6]: 100% | killing at 1 µg/mL [1, 7]: 93% | killing at 2 µg/mL [1, 7]: 100% | killing at 4 µg/mL [1, 7]: 100% | killing at 1 µg/mL [1, 8]: 88% | killing at 2 µg/mL [1, 8]: 98% | killing at 4 µg/mL [1, 8]: 100%
